Test results from patent US11242337B2, “Compounds useful for treating gastrointestinal tract disorders” (Ardelyx, Inc., priority 2017, dated 2022).

What was measured:
NHE3 [1] = molecular target: T1, NHE3 (Homo sapiens, UniProt P48764); experiment: Cell-based assay of NHE-3 activity (pre-incubation inhibition), human; conditions: human Preincubation
T1 construct: expressed in transfected cells
T1 sequence (P48764 26-834): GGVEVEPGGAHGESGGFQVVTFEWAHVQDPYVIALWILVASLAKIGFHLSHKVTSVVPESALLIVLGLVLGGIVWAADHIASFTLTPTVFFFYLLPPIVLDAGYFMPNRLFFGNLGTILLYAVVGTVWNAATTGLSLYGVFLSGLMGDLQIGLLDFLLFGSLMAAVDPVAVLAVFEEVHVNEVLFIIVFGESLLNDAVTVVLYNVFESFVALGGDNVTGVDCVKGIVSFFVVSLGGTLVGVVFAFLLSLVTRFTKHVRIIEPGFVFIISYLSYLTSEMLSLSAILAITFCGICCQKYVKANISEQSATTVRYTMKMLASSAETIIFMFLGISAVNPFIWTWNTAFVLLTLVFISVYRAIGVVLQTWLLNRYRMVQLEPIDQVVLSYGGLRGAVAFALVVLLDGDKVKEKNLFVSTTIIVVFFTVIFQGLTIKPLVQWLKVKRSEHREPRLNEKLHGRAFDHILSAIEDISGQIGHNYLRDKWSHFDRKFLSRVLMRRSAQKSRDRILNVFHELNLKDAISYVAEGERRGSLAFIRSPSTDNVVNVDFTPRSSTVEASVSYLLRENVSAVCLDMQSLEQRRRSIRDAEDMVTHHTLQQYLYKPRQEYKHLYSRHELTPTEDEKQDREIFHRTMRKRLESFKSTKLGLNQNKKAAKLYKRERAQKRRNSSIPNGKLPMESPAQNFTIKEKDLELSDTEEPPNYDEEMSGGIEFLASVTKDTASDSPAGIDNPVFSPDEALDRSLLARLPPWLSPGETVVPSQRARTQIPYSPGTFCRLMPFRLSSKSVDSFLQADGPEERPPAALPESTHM
T1 sequence (Q99653 2-195 partner limits assumed): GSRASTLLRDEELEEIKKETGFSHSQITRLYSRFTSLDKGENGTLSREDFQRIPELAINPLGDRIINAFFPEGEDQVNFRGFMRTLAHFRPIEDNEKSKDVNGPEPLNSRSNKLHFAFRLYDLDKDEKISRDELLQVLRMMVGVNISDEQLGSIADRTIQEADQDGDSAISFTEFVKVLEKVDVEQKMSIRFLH
In short: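 Activity read as initial rate of BCECF fluorescence ratio change per minute (ex 439/505, em 538 nm) following NH4Cl prepulse acid loading. Compound (0–30 μM) present during 10 min Na+-free acidification at room temperature; cells were PS120 fibroblasts stably co-expressing human NHE3 and NHERF2.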

NHE3 [2] = molecular target: T1, NHE3; experiment: Cell-based assay of NHE-3 activity (persistent inhibition), human; conditions: human Persistence, 60 min incubation then washout
In short: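 Persistent inhibition: compound (0-30 μM, 60 min, RT, NaCl-HEPES pH 7.4) removed before assay. Human NHE3/NHERF2 PS120 cells were then BCECF-loaded during NH4Cl pulse (30 min, 37 °C), acidified in Na+-free buffer, and Na+ added 10 min after washout; antiport measured as initial fluorescence-ratio change per minute.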

SMILES: CN(C)[C@@H]1CCCN([C@H]2Cc3c(C#N)cc(Cl)cc3[C@@H]2Oc2ccc(S(=O)(=O)NCCOCCOCCNC(=O)NCCCCNC(=O)NCCOCCOCCNS(=O)(=O)c3ccc(O[C@H]4c5cc(Cl)cc(C#N)c5C[C@@H]4N4CCC[C@@H](N(C)C)C4)cc3)cc2)C1 [Example 121, 4-([(1S,2S)-6-Chloro-4-cyano-2-[(R)-3-(dimethylamino)piperidin-1-yl]-2,3-dihydro-1H-inden-1-yl]oxy)-N-[26-([4-([(1S,2S)-6-chloro-4-cyano-2-[(R)-3-(dimethylamino)piperidin-1-yl]-2,3-dihydro-1H-inden-1-yl]oxy)phenyl]sulfonamido)-10,17-dioxo-3,6,21,24-tetraoxa-9,11,16,18-tetraazahexacosyl]benzenesulfonamide]
- % inhibition (NHE3 [1]): B (40-70%)
- pIC50 (NHE3 [1]; 0-30 μM test compound): C (NHE3 pIC50 > 7)
- % inhibition (NHE3 [2]): A (NHE3 < 40%)
- pIC50 (NHE3 [2]): C (NHE3 pIC50 > 7)

SMILES: N#Cc1cc(Cl)cc2c1C[C@H](N1CCNCC1)[C@H]2Oc1ccc(S(=O)(=O)NC(=O)CCCNC(=O)NCCCCNC(=O)NCCCC(=O)NS(=O)(=O)c2ccc(O[C@H]3c4cc(Cl)cc(C#N)c4C[C@@H]3N3CCNCC3)cc2)cc1 [Example 124, N^1,N^18-Bis([4-([(1S,2S)-6-chloro-4-cyano-2-(piperazin-1-yl)-2,3-dihydro-1H-inden-1-yl]oxy)phenyl]sulfonyl)-6,13-dioxo-5,7,12,14-tetraazaoctadecanediamide]
- % inhibition (NHE3 [1]): C (>70%)
- pIC50 (NHE3 [1]; 0-30 μM test compound): C (NHE3 pIC50 > 7)
- % inhibition (NHE3 [2]): C (>70%)
- IC50 (NHE3 [2]): 100 to 1000 nM

SMILES: N#Cc1cc(Cl)cc2c1C[C@H](N1CCCNCC1)[C@H]2Oc1ccc(S(=O)(=O)N[C@@H]2CCN(CCOCCNC(=O)NCCCCNC(=O)NCCOCCN3CC[C@@H](NS(=O)(=O)c4ccc(O[C@H]5c6cc(Cl)cc(C#N)c6C[C@@H]5N5CCCNCC5)cc4)C3)C2)cc1 [Example 127, 4-([(1S,2S)-6-Chloro-4-cyano-2-(1,4-diazepan-1-yl)-2,3-dihydro-1H-inden-1-yl]oxy)-N—[(R)-1-(20-[(R)-3-([4-([(1S,2S)-6-chloro-4-cyano-2-(1,4-diazepan-1-yl)-2,3-dihydro-1H-inden-1-yl]oxy)phenyl]sulfonamido)pyrrolidin-1-yl]-7,14-dioxo-3,18-dioxa-6,8,13,15-tetraazaicosyl)pyrrolidin-3-yl]benzenesulfonamide; bis(trifluoroacetic acid)]
- % inhibition (NHE3 [1]): C (>70%)
- IC50 (NHE3 [1]; 0-30 μM test compound): < 100 nM
- % inhibition (NHE3 [2]): A (NHE3 < 40%)
- IC50 (NHE3 [2]): < 100 nM

SMILES: CN1CCCN([C@H]2Cc3c(C#N)cc(Cl)cc3[C@@H]2Oc2ccc(S(=O)(=O)N[C@H]3CCN(CCOCCNC(=O)NCCCCNC(=O)NCCOCCN4CC[C@H](NS(=O)(=O)c5ccc(O[C@H]6c7cc(Cl)cc(C#N)c7C[C@@H]6N6CCCN(C)CC6)cc5)C4)C3)cc2)CC1 [Example 128, 4-([(1S,2S)-6-Chloro-4-cyano-2-(4-methyl-1,4-diazepan-1-yl)-2,3-dihydro-1H-inden-1-yl]oxy)-N—[(S)-1-(20-[(S)-3-([4-([(1S,2S)-6-chloro-4-cyano-2-(4-methyl-1,4-diazepan-1-yl)-2,3-dihydro-1H-inden-1-yl]oxy)phenyl]sulfonamido)pyrrolidin-1-yl]-7,14-diaxo-3,18-dioxa-6,8,13,15-tetraazaicosyl)pyrrolidin-3-yl]benzenesulfonamide]
- % inhibition (NHE3 [1]): A (NHE3 < 40%)
- pIC50 (NHE3 [1]; 0-30 μM test compound): A (NHE3 pIC50 < 6)
- % inhibition (NHE3 [2]): A (NHE3 < 40%)
- pIC50 (NHE3 [2]): C (NHE3 pIC50 > 7)

SMILES: CN1CCCN([C@H]2Cc3c(C#N)cc(Cl)cc3[C@@H]2Oc2ccc(S(=O)(=O)N[C@@H]3CCN(CCOCCNC(=O)NCCCCNC(=O)NCCOCCN4CC[C@@H](NS(=O)(=O)c5ccc(O[C@H]6c7cc(Cl)cc(C#N)c7C[C@@H]6N6CCCN(C)CC6)cc5)C4)C3)cc2)CC1 [Example 129]
- % inhibition (NHE3 [1]): A (NHE3 < 40%)
- pIC50 (NHE3 [1]; 0-30 μM test compound): A (NHE3 pIC50 < 6)
- % inhibition (NHE3 [2]): A (NHE3 < 40%)
- pIC50 (NHE3 [2]): C (NHE3 pIC50 > 7)

SMILES: N#Cc1cc(Cl)cc2c1C[C@H](N1C[C@@H]3C[C@H]1CN3)[C@H]2Oc1ccc(S(=O)(=O)N[C@H]2CCN(CCOCCNC(=O)NCCCCNC(=O)NCCOCCN3CC[C@H](NS(=O)(=O)c4ccc(O[C@H]5c6cc(Cl)cc(C#N)c6C[C@@H]5N5C[C@@H]6C[C@H]5CN6)cc4)C3)C2)cc1 [Example 130, 4-([(1S,2S)-2-[(1S,4S)-2,5-Diazabicyclo[2.2.1]heptan-2-yl]-6-chloro-4-cyano-2,3-dihydro-1H-inden-1-yl]oxy)-N—[(S)-1-(20-[(S)-3-[(4-([(1S,2S)-2-[(1S,4S)-2,5-diazabicyclo[2.2.1]heptan-2-yl]-6-chloro-4-cyano-2,3-dihydro-1H-inden-1-yl]oxy)phenyl]sulfonamido)pyrrolidin-1-yl]-7,14-dioxo-3,18-dioxa-6,8,13,15-tetraazaicosyl)pyrrolidin-3-yl]benzenesulfonamide; bis(trifluoroacetic acid)]
- % inhibition (NHE3 [1]): B (40-70%)
- pIC50 (NHE3 [1]; 0-30 μM test compound): C (NHE3 pIC50 > 7)
- % inhibition (NHE3 [2]): C (>70%)
- IC50 (NHE3 [2]): 100 to 1000 nM

SMILES: N#Cc1cc(Cl)cc2c1C[C@H](N1C[C@@H]3C[C@H]1CN3)[C@H]2Oc1ccc(S(=O)(=O)N[C@@H]2CCN(CCOCCNC(=O)NCCCCNC(=O)NCCOCCN3CC[C@@H](NS(=O)(=O)c4ccc(O[C@H]5c6cc(Cl)cc(C#N)c6C[C@@H]5N5C[C@@H]6C[C@H]5CN6)cc4)C3)C2)cc1 [Example 131, 4-([(1S,2S)-2-[(1S,4S)-2,5-Diazabicyclo[2.2.1]heptan-2-yl]-6-chloro-4-cyano-2,3-dihydro-1H-inden-1-yl]oxy)-N—[(R)-1-(20-[(R)-3-([4-([(1S,2S)-2-[(1S,4S)-2,5-diazabicyclo[2.2.1]heptan-2-yl]-6-chloro-4-cyano-2,3-dihydro-1H-inden-1-yl]oxy)phenyl]sulfonamido)pyrrolidin-1-yl]-7,14-dioxo-3,18-dioxa-6,8,13,15-tetraazaicosyl)pyrrolidin-3-yl]benzenesulfonamide; bis(trifluoroacetic acid)]
- % inhibition (NHE3 [1]): C (>70%)
- pIC50 (NHE3 [1]; 0-30 μM test compound): C (NHE3 pIC50 > 7)
- % inhibition (NHE3 [2]): C (>70%)
- IC50 (NHE3 [2]): 100 to 1000 nM

SMILES: C[C@H]1CN([C@H]2Cc3c(C#N)cc(Cl)cc3[C@@H]2Oc2ccc(S(=O)(=O)N[C@H]3CCN(CCOCCNC(=O)NCCCCNC(=O)NCCOCCN4CC[C@H](NS(=O)(=O)c5ccc(O[C@H]6c7cc(Cl)cc(C#N)c7C[C@@H]6N6CCN[C@@H](C)C6)cc5)C4)C3)cc2)CCN1 [Example 134, 4-([(1S,2S)-6-Chloro-4-cyano-2-[(S)-3-methylpiperazin-1-yl]-2,3-dihydro-1H-inden-1-yl]oxy)-N—[(S)-1-(20-[(S)-3-([4-([(1S,2S)-6-chloro-4-cyano-2-[(S)-3-methylpiperazin-1-yl]-2,3-dihydro-1H-inden-1-yl]oxy)phenyl]sulfonamido)pyrrolidin-1-yl]-7,14-dioxo-3,18-dioxa-6,8,13,15-tetraazaicosyl)pyrrolidin-3-yl]benzenesulfonamide; bis(trifluoroacetic acid)]
- % inhibition (NHE3 [1]): C (>70%)
- pIC50 (NHE3 [1]; 0-30 μM test compound): C (NHE3 pIC50 > 7)
- % inhibition (NHE3 [2]): C (>70%)
- pIC50 (NHE3 [2]): C (NHE3 pIC50 > 7)

SMILES: C[C@H]1CN([C@H]2Cc3c(C#N)cc(Cl)cc3[C@@H]2Oc2ccc(S(=O)(=O)N[C@@H]3CCN(CCOCCNC(=O)NCCCCNC(=O)NCCOCCN4CC[C@@H](NS(=O)(=O)c5ccc(O[C@H]6c7cc(Cl)cc(C#N)c7C[C@@H]6N6CCN[C@@H](C)C6)cc5)C4)C3)cc2)CCN1 [Example 135]
- % inhibition (NHE3 [1]): C (>70%)
- pIC50 (NHE3 [1]; 0-30 μM test compound): C (NHE3 pIC50 > 7)
- % inhibition (NHE3 [2]): C (>70%)
- pIC50 (NHE3 [2]): C (NHE3 pIC50 > 7)

SMILES: C[C@@H]1CN([C@H]2Cc3c(C#N)cc(Cl)cc3[C@@H]2Oc2ccc(S(=O)(=O)N[C@H]3CCN(CCOCCNC(=O)NCCCCNC(=O)NCCOCCN4CC[C@H](NS(=O)(=O)c5ccc(O[C@H]6c7cc(Cl)cc(C#N)c7C[C@@H]6N6C[C@@H](C)N[C@@H](C)C6)cc5)C4)C3)cc2)C[C@H](C)N1 [Example 136]
- % inhibition (NHE3 [1]): C (>70%)
- pIC50 (NHE3 [1]; 0-30 μM test compound): C (NHE3 pIC50 > 7)
- % inhibition (NHE3 [2]): C (>70%)
- pIC50 (NHE3 [2]): C (NHE3 pIC50 > 7)
